Five molecules from patent US8907098B2, “Inhibitors of sphingosine kinase” (MERCK PATENT GmbH, priority 2009, dated 2014) can be followed below.

Where only a bound is given, the exact number is not on record here.

Chain of modified SphK1 (Q9NYA1 whole entry): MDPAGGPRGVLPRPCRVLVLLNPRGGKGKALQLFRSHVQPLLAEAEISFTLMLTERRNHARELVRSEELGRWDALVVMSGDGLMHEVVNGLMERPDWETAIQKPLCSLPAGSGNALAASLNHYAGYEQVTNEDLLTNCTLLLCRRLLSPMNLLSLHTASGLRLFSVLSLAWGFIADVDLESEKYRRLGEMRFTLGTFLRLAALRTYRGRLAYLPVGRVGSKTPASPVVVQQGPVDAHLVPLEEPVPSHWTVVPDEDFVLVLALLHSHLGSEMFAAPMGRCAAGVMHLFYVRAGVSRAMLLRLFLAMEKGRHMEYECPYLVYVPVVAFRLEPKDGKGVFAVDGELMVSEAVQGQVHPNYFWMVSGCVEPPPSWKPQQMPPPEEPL

The target in the test is modified SphK1 (Homo sapiens, UniProt Q9NYA1). The test is described as follows: SphK1 biochemical kinase assay (384-well flashplate). The settings on record: IC50 ranges; 5 nM modified SphK1, 1 μM ATP, 30° C., 120 min; read-out: SphK1 Inhibition IC50. Here is the method:
The kinase assay is carried out as a 384-well flashplate assay.
5 nM modified SphK1, 800 nM omega-biotinyl-D-erythro-sphingosine and 1 μM ATP (with 0.3 μCi of ^33P-ATP/well) are incubated in a total volume of 50 μl (25 mM HEPES, 5 mM MgCl2, 1 mM dithiothreitol, 0.01% of Brij35, 0.1% of BSA (fatty acid-free), pH 7.4) without or with test substance (5-10 concentrations) at 30° C. for 120 min. The reaction is terminated using 25 μl of 200 mM EDTA solution, filtered off with suction at room temperature after 30 min, and the cavities are washed 3 times with 100 μl of 0.9% NaCl solution. The non-specific proportion of the kinase reaction (blank) is determined using 0.5 mM NaCl. Radioactivity is measured in topcount. IC50 values are calculated using RS1.
The IC50 is the concentration needed to halve the response being measured. With `CC1(C)CCCc2cc(-c3csc(N4CCN(CCCCCO)CC4)n3)ccc21` [5-{4-[4-(5,5-Dimethyl-5,6,7,8-tetrahydronaphthalen-2-yl)thiazol-2-yl]-piperazin-1-yl}pentan-1-ol], the IC50 is over 1000 nM.
As to `CC1(C)CCC(C)(C)c2cc(-c3csc(N4CCC(NCc5c[nH]cn5)CC4)n3)ccc21` [(1H-Imidazol-4-ylmethyl)-{1-[4-(5,5,8,8-tetramethyl-5,6,7,8-tetrahydronaphthalen-2-yl)thiazol-2-yl]piperidin-4-yl}amine], the IC50 is under 100 nM.
In the case of `Cn1cncc1CNC1CCN(c2nc(-c3ccc4c(c3)C(C)(C)CCC4(C)C)cs2)CC1` [(3-Methyl-3H-imidazol-4-ylmethyl)-{1-[4-(5,5,8,8-tetramethyl-5,6,7,8-tetrahydronaphthalen-2-yl)thiazol-2-yl]piperidin-4-yl}amine], the IC50 was 100 to 1000 nM.
The value for `CC1(C)CCC(C)(C)c2cc(-c3csc(N4CCC(N(Cc5cc[nH]n5)Cc5cc[nH]n5)CC4)n3)ccc21` [Bis-(1H-pyrazol-3-ylmethyl)-{1-[4-(5,5,8,8-tetramethyl-5,6,7,8-tetrahydronaphthalen-2-yl)thiazol-2-yl]piperidin-4-yl}amine] was 100 to 1000 nM; that for `CN(C)C1CCN(c2nc(-c3ccc4c(c3)C(C)(C)CCC4(C)C)cs2)CC1` [Dimethyl-{1-[4-(5,5,8,8-tetramethyl-5,6,7,8-tetrahydronaphthalen-2-yl)thiazol-2-yl]piperidin-4-yl}amine] was under 100 nM.
